Experimental data published in patent publication US20230381176A1, “A PHARMACEUTICAL COMPOSITION AND USE THEREOF FOR TREATMENT OF CANCER” (Ascentage Pharma (Suzhou) Co., Ltd., priority 2020, published 2023).

What was measured:
ovarian PDX OV1658 = test: Ovarian PDX model OV1658, Compound 5 and carboplatin and/or paclitaxel; assay type: in vivo, mouse
Experimental: (§1) A subcutaneous xenograft tumor model of human tumor immunodeficient mice was established by cell inoculation: tumor cells in logarithmic growth phase were collected, counted, resuspended in 1×PBS, and the cell suspension concentration was adjusted to 2.5-5 ×10^7/mL. The tumor cells were inoculated subcutaneously in the right side of immunodeficient mice with a 1 mL syringe ([…]), 5-10×10^6/0.2 mL/mouse. All animal experiments were strictly in accordance with the specifications for the use and management of experimental animals in GenePharma Co., Ltd. and Suzhou Ascentage Pharma Co., Ltd. The calculation of relevant parameters refers to the Chinese NMPA “Guidelines for Non-Clinical Research Techniques of Cytotoxic Anti-tumor Drugs”.
(§2) Animal body weight and tumor size were measured twice weekly during the experiment. The state of the animal and the presence or absence of death were observed every day. The growth of tumor and the effects of treatment on normal behavior of animals were monitored routinely, specifically involving experimental animal activity, feeding and drinking, weight gain or loss, eyes, clothing hair and other abnormalities. The deaths and clinical symptoms observed during the experiment were recorded in the raw data. All operations for administration and measurement of mouse body weight and tumor volume were performed in a clean bench. According to the requirements of the experimental protocol, after the end of the last administration, plasma and tumor tissues were collected, weighed and photographed. The plasma and tumor samples were frozen at −80° C. for ready-to-use.
(§3) Tumor volume (TV) is calculated as: TV=a×b^2/2, wherein a and b represent the length and width of the tumor to be measured, respectively.
(§4) The relative tumor volume (RTV) is calculated as: RTV=Vt/V1, wherein V1 is the tumor volume at the start of grouping and administration, and Vt is the tumor volume measured on the t day after administration.
(§5) Change of body weight (%)=(measured body weight−body weight at the start of grouping)/body weight at the start of grouping×100%.
(§6) A dose of drug is considered to be severely toxic if the body weight of mouse is reduced by more than 20% or the number of drug-related deaths exceeds 20%.
(§7) According to the description by Clarke R., Issues in experimental design and endpoint analysis in the study of experimental cytotoxic agents in vivo in breast cancer and other models [J]. Breast Cancer Research & Treatment, 1997, 46(2-3): 255-278, synergy analysis was evaluated using the following formula: synergy factor=((A/C)×(B/C))/(AB/C); A=RTV value of drug A alone group; B=RTV value of drug B alone group; C=RTV value of the solvent control group, and AB=RTV value of the A and B combination group.
(§8) Use of mRECIST (Gao et al., 2015) measured tumor responses included stable disease (SD), partial tumor regression (PR), and complete regression (CR), determined by comparing tumor volume change at day t to its baseline: tumor volume change (%)=(Vt−V1)/V1. The BestResponse was the minimum value of tumor volume change (%) for t≥10. For each time t, the average of tumor volume changes from t=1 to t was also calculated. BestAvgResponse was defined as the minimum value of this average for t≥10. The criteria for response (mRECIST) were adapted from RECIST criteria (Gao et al., 2015; Therasse et al., 2000) and defined as follows: mCR, BestResponse<−95% and BestAvg Response<−40%; mPR, BestResponse<−50% and BestAvgResponse<−20%; mSD, BestResponse<35% and BestAvgResponse<30%; mPD, not otherwise categorized. SD, PR, and CR were considered responders and used to calculate response rate (%). […] Body weight of animals were monitored simultaneously. The change in body weight was calculated based on the animal weight of the first day of dosing (day 1). Tumor volume and changes in body weight (%) were represented as the mean±standard error of the mean (SEM).

[1] = system: PTK2 high ovarian PDX OV1385; test: PTK2 high ovarian PDX model OV1385, Compound 5 and carboplatin and/or paclitaxel; assay type: in vivo, mouse
Experimental: as §1, §2, §3, §4, §5, §6, §7, §8

[2] = system: PTK2 high NSCLC PDX LU-01-0604; test: s.c. PTK2 high NSCLC PDX model LU-01-0604, Compound 5 and carboplatin; assay type: in vivo, mouse
Experimental: as §1, §2, §3, §4
(§9) The evaluation index of anti-tumor activity is the relative tumor proliferation rate T/C (%), and the calculation formula thereof is: relative tumor proliferation rate T/C (%)=(TRTV/CRTV)×100%, TRTV is the RTV of treatment group, CRTV is the RTV of solvent control group.
as §5, §6, §7
as §8, with “The change in body weight was calculated based on the animal weight of the first day of dosing (day 1). Tumor volume and changes in body weight (%) were represented as the mean±standard error of the mean (SEM).” left out

[3] = system: Neuroblastoma SH-SY5Y (ALK F1174L) xenograft; test: s.c. Neuroblastoma SH-SY5Y xenograft model, Compound 5 and Compound 33; assay type: in vivo
Experimental: as §1, §2, §3, §4, §9, §5, §6, §7
as §8, with “The change in body weight was calculated based on the animal weight of the first day of dosing (day 1). Tumor volume and changes in body weight (%) were represented as the mean±standard error of the mean (SEM).” left out

A549 NSCLC xenograft = test: s.c. A549 NSCLC xenograft tumor model, Compound 5 and trametinib/selumetinib; assay type: in vivo, mouse
Experimental: as §1, §2, §3, §4, §9, §5, §6, §7
as §8, with “The change in body weight was calculated based on the animal weight of the first day of dosing (day 1). Tumor volume and changes in body weight (%) were represented as the mean±standard error of the mean (SEM).” left out

[4] = Compound 5 50 mg/kg orally once per day, carboplatin 30 mg/kg i.p. once a week, paclitaxel 10 mg/kg i.v. once a week, 19 days
[5] = best response, animals per class
[6] = Compound 5 50 mg/kg orally once per day, carboplatin 30 mg/kg i.p. once a week, paclitaxel 10 mg/kg i.v. once a week, 35 days
[7] = Compound 5 50 mg/kg orally once per day, carboplatin 30 mg/kg i.p. once per week, 29 days
[8] = Compound 5 50 mg/kg orally once per day, Compound 33 50 mg/kg orally once per day D1-D10 and once on D21
[9] = Compound 5 100 mg/kg, trametinib 0.5 mg/kg, selumetinib 50 mg/kg, orally once per day

For `Cc1cc(Nc2ncc(Cl)c(Nc3ccccc3S(=O)(=O)C(C)C)n2)c(OC(C)C)cc1C1=CCN(C2CCOCC2)CC1` [Compound 5, 5-chloro-N^2-(2-isopropoxy-5-methyl-4-(1-(tetrahydro-2H-pyran-4-yl)-1,2,3,6-tetrahydropyridin-4-yl)phenyl)-N^4-(2-(isopropylsulfonyl)phenyl)pyrimidine-2,4-diamine], the “RTV on Day 19 after administration (mean ± standard error)” value (ovarian PDX OV1658; [4]) was 14.57 ± 0.47, the “T/C on Day 19 after administration (%)” value (ovarian PDX OV1658; [4]) was 106.67% and the “mRECIST on Day 19 after administration” value (ovarian PDX OV1658; Day 19, animals per class) was 2/2 PD. The mRECIST (ovarian PDX OV1658; [5]) was 2/2 PD, the “RTV on Day 35 after administration (mean ± standard error)” value [1, 6] was 4.10 ± 0.42 and the “T/C on Day 35 after administration (%)” value [1, 6] was 101.49%. For the same molecule, the “mRECIST on Day 35 after administration” value ([1]; Day 35, animals per class) was 2/2 PD, the mRECIST [1, 5] was 2/2 PD and the “RTV on Day 29 after administration (mean ± standard error)” value [2, 7] was 8.25 ± 1.03. For the same molecule, the “T/C on Day 29 after administration (%)” value [2, 7] was 94.50%, the mRECIST ([2]; animals per class) was 2/2 PD and the “antitumor activity (conclusion in words)” value ([2]; mouse, in vivo) was “no antitumor activity”. The “RTV on Day 21 after administration (mean + standard error)” value [3, 8] was 1.79 ± 0.22, the “T/C on Day 21 after administration (%)” value [3, 8] was 6.74% and the DCR ([3]; mouse, in vivo) was 60. The “ORR (%)” value ([3]; mouse, in vivo) was 0%, the “antitumor activity (conclusion in words)” value ([3]; mouse, in vivo) was “strong antitumor activity” and the “RTV on Day 19 after administration (mean ± standard error)” value (A549 NSCLC xenograft; [9]) was 2.7 ± 0.2. For the same molecule, the “T/C on Day 19 after administration (%)” value (A549 NSCLC xenograft; [9]) was 72.2%, the “mRECIST on Day 19 after administration” value (A549 NSCLC xenograft; Day 19, animals per class) was 5/5 PD and the mRECIST (A549 NSCLC xenograft; [5]) was 1/5 SD, 4/5 PD. For the same molecule, the “antitumor activity (conclusion in words)” value (A549 NSCLC xenograft; mouse, in vivo) was “minor antitumor activity”.
